Results published in patent publication US10329231B2, “Epoxy compound, method for producing the same, epoxy resin composition, and cured product thereof” (DIC Corporation, priority 2012, dated 2019).

Assays:
Assay type in all cases: physicochemical
[1] = Solubility in hexane during purification; conditions: reflux then room temperature
Experimental: Oxidative coupling reaction and solvent extraction were performed under the same conditions as in Example 1. Ethyl acetate was distilled off under vacuum, and then hexane was added to the resultant crude product. The mixture was transferred to a SUS container provided with a thermometer, a stirrer, and Dean-Stark trap, and hexane was further added so that the total amount was 5 L, followed by reflux. The hexane solution was cooled to room temperature, and then insoluble substances were filtered off. The solvent of the filtrate was distilled off under vacuum, and the residue was dried at 110° C. for 5 hours to produce 2 g (yield 3%) of a solid containing [1,1′-binaphthalene]-2,2′,7,7′-tetraol as a main component.

[2] = Softening point, ball & ring (B & R) method, JIS K7234; conditions: glycerin heating medium
Source text: 2) Method for measuring softening point: measured by a ball & ring (B & R) method using glycerin as a heating medium according to JIS K7234.
Apparatus name: ASP-M2 model manufactured by Meitec Corporation

[3] = Melt viscosity at 150° C., ASTM D4287 (ICI viscometer method); parameters: Melt viscosity at 150° C. of epoxy resin: unit not given here; conditions: for Melt viscosity at 150° C. of epoxy resin: Table 1
Experimental: 1) Melt viscosity at 150° C.: measured with an apparatus below according to ASTM D4287.
Apparatus name: MODEL CV-1S manufactured by Codex Corporation

Row | solubility in hexane [1] | Softening point of epoxy resin [2] [°C] | Melt viscosity at 150° C. of epoxy resin ([3]; 150° C.) | melt viscosity ([3]; ICI viscometer method, measurement temperature 150° C.) [dPa·s] | 150° C. melt viscosity ([3]; 150° C., data given with the product description) [ps] | Compound
1 | low solubility |  |  |  |  | Oc1ccc2ccc(O)c(-c3c(O)ccc4ccc(O)cc34)c2c1 [1,1′-Binaphthalene]-2,2′,7,7′-tetraol, [1,1′-binaphthalene]-2,2′,7,7′-tetraol]
2 |  | 61 | 1.1 | 1.1 |  | c1cc2ccc(OCC3CO3)c(-c3c(OCC4CO4)ccc4ccc(OCC5CO5)cc34)c2cc1OCC1CO1 (stereo not shown) [Example A-1, 2,2′,7,7′-tetraglycidyloxy-[1,1′-binaphthalene]]
3 |  | 91 | 4.5 |  | 4.5 | c1cc2ccc(OCC3CO3)c(Cc3c(OCC4CO4)ccc4ccc(OCC5CO5)cc34)c2cc1OCC1CO1 (stereo not shown) [Example A-2, reference compound]
